US20070072931A1, “Pharmaceutical composition and a method for treatment of prostate cancer” (priority 2005, published 2007)
“Also recorded” adds a separate entry of the source.

How the values were obtained:
[1] = tested on: cardiomyocytes; test: Cell viability, primary culture of rat neonatal cardiomyocytes; format: cell-based; details: 9 μg/ml
Experimental: The cardiomyocytes from 2-day-old neonatal rat were isolated by the method previously described by Yoshihiro Kimura (1994) with modifications. Briefly, heart was excised and minced in pre warmed (37° C.) Ads buffer (1.2M NaCl, 198 mM HEPES, 54 mM KCl, 8.3 mM MgSO4, 55.4 mM glucose, 95 mM NaH2PO4), digested in type II Collagenase 0.05% and Pancreatin in three successive digestions of 15 minutes each. Supernatant was pooled and cells palleted at 2000 g, for 10 minutes. Cells were resuspended and plated in collagen coated T-25 flasks in Medium-199 enriched with 10% FBS and 1% antibiotic-antimycotic.
The cardiomyocytes from 2-day-old neonatal rat were isolated by the method previously described by Yoshihiro Kimura (1994) with modifications. Briefly, the heart was excised and minced in pre-warmed (37° C.) Ads buffer (1.2M NaCl, 198 mM HEPES, 54 mM KCl, 8.3 mM MgSO4, 55.4 mM glucose, 95 mM NaH2PO4), digested in type II Collagenase 0.05% and Pancreatin in 3-succesive digestions of 15 minutes each. Supernatant was pooled and cells palleted at 2000 g, 10 minutes. Cells were resuspended and plated in collagen coated T-25 flasks in Medium-199 enriched with 10% FBS and 1% antibiotic-antimycotic.
(§1) To evaluate the specificity of mahanine, its effect on other cells in primary culture, such as, hepatocytes, cardiomyocyte and skeletal muscle was examined.

[2] = tested on: caspase 9; test: Immunoblotting of caspase 9 activation in PC-3 cells; format: cell-based, human; details: 3 μg/ml
Experimental: (§2) PC-3 cells (1×10^6 cells) were incubated with complete medium. Cells were detached using cell dissociation reagent from Sigma Chemical company St Louis, Mo., USA. They were collected by centrifugation at 1500 g for 10 minutes and boiled for 5-7 minutes in sodium dodecyl sulphate (SDS) buffer (pH 6.8). Aliquots containing 60 μg total cellular protein were separated by 10% SDS-PAGE and transferred to PVDF membrane (MILIPORE, Bedford, Mass., USA). Membrane was blocked with blocking buffer for 1 hr at room temperature and probed with desired primary antibody caspase 9, Bcl-xl, pAkt/1/2/3(ser 473), anti PARP, Cytochrome C (Santa-Cruz Biotechnology, Inc. USA). Anti caspase 3 that recognizes procaspase 3 (32 kDa) and the active cleaved caspase 3 (17 kDa) (BD Biosciences, Mountainview, Calif.). Akt, cleaved caspase 9 (Cell Signaling technology, Beverly, Mass.) overnight at 4° C. followed by alkaline phosphatase conjugated secondary antibody and detection.
(§3) PC-3 cells (1×10^6 cells) were incubated with complete medium alone or with 3 μg/ml of Mahanine (MK-3) as indicated. Cells were detached using cell dissociation reagent from Sigma Chemical company St Louis, Mo., USA. The cells were collected by centrifugation at 1500 g for 10 minutes and boiled for 5-7 minutes in SDS buffer (pH 6.8). […]

[3] = tested on: Akt; test: Immunoblotting of Akt and pAkt (ser 473) in PC-3 cells; format: cell-based, human
Experimental: as §2
PC-3 cells (1×10^6 cells) were incubated with complete medium alone or with 3 μg/ml of Mahanine (MK-3) as indicated. Cells were detached using cell dissociation reagent from Sigma Chemical company St Louis, Mo., USA. The cells were collected by centrifugation at 1500 g for 10 minutes and boiled for 5-7 minutes in SDS buffer (pH 6.8). Aliquots containing 60 μg total cellular protein were separated by 10% SDS-PAGE and transferred to PVDF membrane (MILIPORE, Bedford, Mass., USA). Membrane was blocked with blocking buffer for 1 hr at room temperature and probed with desired primary antibody caspase 9, Bcl-xl, pAkt/1/2/3(ser 473), anti PARP, Cytochrome C (Santa-Cruz Biotechnology Inc., USA). Anti-caspase 3 that recognizes procaspase 3 (32 kDa) and the active cleaved caspase 3 (17 kDa) (BD Biosciences, Mountainview, Calif.) were also used. Akt, cleaved caspase 9 (Cell Signaling Technology, Beverly, Mass.) overnight at 4° C. followed by alkaline phosphatase conjugated secondary antibody and detection.

[4] = tested on: cytochrome c; test: Immunofluorescence of cytochrome c release in PC-3 cells; format: cell-based, human
Experimental: Cells were cultured on glass cover slips. Both control and treated cells were fixed with PBS containing 4% paraformaldehyde for 2 hrs at 4° C. The cells were permiabilized with 0.1% Triton X-100 in PBS and then incubated with rabbit polyclonal anti-cytochrome c antibody (Santa Cruz, USA, dilution 1:50) for 3 hrs followed by incubation with FITC-conjugated secondary antibody (goat anti-rabbit, Santa Cruz, 1:50) for another 1 hr with rigorous washing in all the above steps with PBS. 1 μg/ml DAPI was also added in each set. The stained cells were observed under fluorescence microscope (Olympus BX51 microscope, Tokyo, Japan) and the images were captured with Cool Snap Pro camera.

[5] = tested on: caspase 3; test: Immunoblotting of caspase 3 activation in PC-3 cells; format: cell-based, human
Experimental: as §2, §3

[6] = tested on: hepatocytes; test: Cell viability, primary culture of rat neonatal hepatocytes; format: cell-based; details: 9 μg/ml
Experimental: The hepatocytes from 2-day-old neonatal rats were isolated by method described previously by William E. Russell (1997) with modifications. Briefly, the livers were perfused through the portal vein with a calcium-free solution consisting of 150 mM NaCl, 2.8 mM KCl, 5.5 mM glucose, and 25 mM HEPES (pH 7.6) for 10 minutes, followed by mincing and digestion in DMEM containing 0.05% collagenase type IV for 30 minutes. The cells were centrifuged (2000 g, 10 minutes) and dispersed in DMEM enriched with 10% FBS, 1% antibiotic-antimycotic.
The hepatocytes from 2-day-old neonatal rat were isolated by method described previously by William E Russell (1997) with modifications.
Briefly, the livers were perfused through the portal vein with a calcium-free solution consisting of 150 mM NaCl, 2.8 mM KCl, 5.5 mM glucose, and 25 mM HEPES (pH 7.6) for 10 minutes, followed by mincing and digestion in DMEM containing 0.05% collagenase type IV for 30 minutes. The cells were centrifuged (2000 g, 10 minutes) and dispersed in DMEM enriched with 10% FBS, 1% antibiotic-antimycotic.
as §1

[7] = tested on: Bcl-xl; test: Immunoblotting of Bcl-xl expression in PC-3 cells; format: cell-based, human; details: 36 hrs (mahanine 3 μg/ml)
Experimental: as §2, §3

[8] = Acute toxicity as per WHO guidelines, haematological and biochemical parameters; format: in vivo, Mice; Balb/C
Experimental: Experiments for acute toxicity were performed as per the guidelines of WHO.
Experimental subject: Mice; Balb/C Male, female; 25 gms body weight (approx).
16 mice were divided into 2 groups; 8 animals received the dosage of @2 gm/kg body weight of combined extract. Equal volume of the vehicle (DMSO) was given to 8 animals, wherein the dose was administered orally once and then animals were sacrificed and haematological parameters checked 15 days after treatment.
Experimental subject: Mice; Balb/C Male; female; 25 gms body weight (approx).
16 mice were divided into 2 groups 8 animals were received the compound @2 gm/kg body weight. Equal volume of the vehicle (DMSO) was given to 8 animals, wherein the dose was administered orally once, and then animals were sacrificed and haematological and biochemical parameters checked 15 days after treatment.
Biochemical parameters were assessed for the pure molecule mahanine. Since it is a pure molecule there is a need to see the biochemical profile, therefore we concentrated on the biochemical parameters only. The experimental procedure followed was the same as that for the combined extract described above.

[9] = tested on: PARP; test: Immunoblotting of PARP cleavage in PC-3 cells; format: cell-based, human; details: 3 μg/ml
Experimental: as §2, §3

[10] = tested on: LNCaP cells; test: Cell killing / viability of androgen dependent prostate cancer cell line LNCaP; format: cell-based; details: mahanine 1, 2, 3 μg/ml vs untreated cells
Experimental: FIG. 2 is a graph showing dose response of PC-3 and LNCaP cell line to mahanine. […] The dose used was 1, 2, 3 μg/ml in comparison to control untreated cells (0) in both the cell lines.

[11] = tested on: PC-3 cells; test: Viability of PC-3 by MTT assay (CellTiter 96 AQueous One); format: cell-based, human; details: mahanine 1, 2, 3 μg/ml vs untreated cells
Experimental: Human prostate cancer cell line, PC-3 (PTEN-ve, androgen independent) from American Type Culture Collection, Manassas, Va., USA was used. Cells were grown in Dulbecco's Modified Eagle Medium (DMEM) supplemented with 10% Fetal Bovine Serum (FBS) and 1% antibiotic-antimycotic. Cells were cultured in 37° C. in an atmosphere of 5% CO2.
Viability of PC-3 after treatment as at the indicated times was determined by MTT assay—CellTiter 96® AQoueus One Solution Cell Proliferation Assay (Promega Corp., Madison, Wis.), as per manufacturer's protocol. Briefly, 10,000 cells were plated in triplicate in 96 well plates and incubated for 12 hrs in complete media. […] Absorbance was recorded at 490 nm with 96 well plate readers. Reference wavelength of 630 nm was used to reduce background contributed by non-specific absorbance due to cell debris. […]
Viability of PC-3 after treatment as at the indicated times was determined by MTT assay—CellTiter 96® AQoueus One Solution Cell Proliferation Assay (Promega Corp., Madison, Wis.), as per manufacturer's protocol.
Briefly, 10,000 cells were plated in triplicate in 96 well plates and incubated for 12 hrs in complete media. […] Absorbance was recorded at 490 nm with 96 well plate readers. Reference wavelength of 630 nm was used to reduce background contributed by non-specific absorbance due to cell debris.

[12] = tested on: skeletal muscle cells; test: Cell viability, primary culture of neonatal rat skeletal muscle; format: cell-based; details: 9 μg/ml
Experimental: The skeletal muscles from 2-day-old neonatal rats were isolated by method described previously by William E. Russell (1997) with modifications. Briefly, Soleus muscle was dissected, minced and digested with 0.2% Type II Collagenase and 0.05% trypsin in PBS pH 7.4, 0.15M NaCl. The dispersed skeletal muscle cells were centrifuged (100 g, 10 minutes) washed and resuspended in PBS with 1% antibiotic-antimycotic. Cells were preincubated for 30 minutes at 37° C., 95% air/5% CO2. The floating muscle cells were plated on collagen coated T-25 flasks in DMEM enriched with 10% FBS and 1% antibiotic-antimycotic.
The skeletal muscles from 2-day-old neonatal rat were isolated by method described previously by William E. Russell (1997) with modifications.
Briefly, Soleus muscles were dissected, minced and digested with 0.2% Type II Collagenase and 0.05% trypsin in PBS, pH 7.4, 0.15M NaCl. The dispersed skeletal muscle cells were centrifuged (1000 g, 10 minutes) washed and re-suspended in PBS with 1% antibiotic-antimycotic. Cells were preincubated for 30 minutes at 37° C., 95% air/5% CO2. The floating muscle cells were plated on collagen coated T-25 flasks in DMEM enriched with 10% FBS and 1% antibiotic-antimycotic.
as §1

## mahanine
[1]
  killing of cardiomyocytes in primary culture: did not kill
[2]
  earliest time at which cleaved caspase 9 could be detected: 6 h
  time course of cleaved caspase 9: steadily increased at 12 hrs and 24 hrs, and declined at 36 hrs
[3]; PC-3 cells
  effect on steady state levels of Akt protein: no effect
  inhibition of phosphorylation of Akt: in a dose and time dependent manner
[3]; PC-3 cells (mahanine 3 μg/ml)
  time at which Akt serine 473 phosphorylation was inhibited: 24 h
  time by which Akt activation was totally blocked: ≤ 36 h
[4]
  leakage of cytochrome c from the mitochondria: caused leakage of cytochrome c
[5]; PC-3 cells (mahanine 3 μg/ml)
  time of peak of caspase 3 activity: 60 h
[5]; PC-3 cells, 48 hrs (mahanine 3 μg/ml)
  activation of caspase 3 at 48 hrs: considerably increased
[6]
  killing of hepatocytes in primary culture: did not kill
[7]
  Bcl-xl expression at 36 hrs: significantly decreased; also recorded: considerably downregulated
[8]; Balb/C mice, 2 gm/kg orally once, 15 days after treatment
  indication of toxicity in treated mice: no indication of any toxicity
[8]; Balb/C mice, 2 gm/kg orally once, 15 days after treatment, vehicle control 3.82
  Creatinine: 3.72 mg/dL
[8]; Balb/C mice, 2 gm/kg orally once, 15 days after treatment, vehicle control 10.69
  Hb: 10.713 gm/dl
[8]; Balb/C mice, 2 gm/kg orally once, 15 days after treatment, vehicle control 32.0
  SGPT: 30.7 units/ml
[8]; Balb/C mice, 2 gm/kg orally once, 15 days after treatment, vehicle control 35.4
  Urea: 48.6 mg/dL
[8]; Balb/C mice, 2 gm/kg orally once, 15 days after treatment, vehicle control 92
  WBC: 89
[8]; Balb/C mice, 2 gm/kg orally once, 15 days after treatment, vehicle control 147.5
  SGOT: 174.0 units/ml
[8]; Balb/C mice, 2 gm/kg orally once, 15 days after treatment, vehicle control 1029
  RBC: 1032
[8]; mice, until 1 month
  change in acute toxicity data until 1 month: no change
[9]
  time of maximum cleavage of PARP (89 kDa fragment): 36 h
[10]
  killing / apoptosis of androgen dependent cell line LNCaP: in a dose and time dependent manner
[11]
  killing / apoptosis of androgen independent cell line PC-3: in a dose and time dependent manner
[11]; listed as mahanine
  killing / apoptosis of androgen independent cell line PC-3: in a time and dose dependent manner
[12]
  killing of skeletal muscle cells in primary culture: did not kill
